Data published in patent US20150273086A1, “HYPERPOLARIZED 2-OXOGLUTARATE AS METABOLIC AGENT IN MR” (BRACCO IMAGING S.P.A., priority 2012, published 2015).

Columns and labels:
[1] = system: prostate cancer cells (PC-3); conditions: 3.5 mM substrate, aspartate added, 14.1 T, 37° C., FIG. 3
Procedure: 10 million prostate cancer cells (PC-3) were harvested and redissolved in 500 μl phosphate buffer (PBS).
The acquisition was started just before injection of the hyperpolarized substrate.

[2] = system: liver cancer cells (Morris7777); conditions: 3.5 mM total substrate, aspartate added, FIG. 13
Procedure: 10 million liver cancer cells (Morris7777), were harvested and redissolved in 500 μl phosphate buffer (PBS).
The acquisition was started just before injection of the hyperpolarized substrates.

[3] = system: PC-3, HEP-G2, PNT-1A and THLE-3 cells; assay: UV assay of uptake and conversion of 2-oxoglutarate to glutamate in cancerous and normal cells; assay type: cell-based, human; conditions: 20 mM 2-oxoglutarate, 20 mM aspartate as co-substrate, 30 minutes at 37° C., FIG. 2
Procedure: A combination of cellular uptake of 2-oxoglutarate and conversion of 2-oxoglutarate to glutamate was measured using a UV assay. Following incubation of the cells with 2-oxoglutarate for 30 minutes at 37° C. the cells were disrupted and a perchloric acid extract was made to precipitate the enzymes, whereafter the concentration of the formed product, glutamate, was measured.
The following UV assay for measuring glutamate production was applied.
The assay consists of two parts, as shown in the reaction scheme below. In the first part, glutamate is generated by incubating 0.5 million (0.5*10^6) viable cells with 20 mM 2-oxoglutarate and 20 mM aspartate for 30 minutes at 37° C. In the second part the glutamate concentration is measured using commercially available GDH (glutamate dehydrogenase) enzyme to generate 2-oxoglutarate and NADH. The latter is an unfavorable reaction and the reaction is therefore forced in this direction by trapping of the produced NADH in the INT (Iodonitrotetrazolium) reaction.
Reaction scheme for the assay determining glutamate concentration from cells incubated with 2-oxoglutarate. GDHcell refer to the cellular presence of glutamate dehydrogenase which will convert 2-oxoglutarate to glutamate when 2-oxoglutarate is incubated with whole cells in the first part of the assay. […]

aspartate transaminase = assay: Aspartate transaminase conversion of hyperpolarized 1-13C-2-oxoglutarate to 1-13C-glutamate with or without co-substrate
Procedure: The sample was dissolved in 5 ml phosphate buffer (40 mM, pH 7.3) with addition of NaOH (8 μl, 12 M). The pH after dissolution was 7.3. From this hyperpolarized solution aliquots of 300 μl were taken and added one at a time to 5 mm NMR tubes (1-3) kept at 37° C. containing the following:
Tube 1: 2.5 μl (3.2 U) aspartate transaminase+100 μl (120 mM) glutamate+200 μl 40 mM phosphate buffer pH.7.3.
Tube 2: 2.5 μl (3.2 U) aspartate transaminase+100 μl (120 mM) aspartate+200 μl 40 mM phosphate buffer pH.7.3.
Tube 3: 2.5 μl (3.2 U) aspartate transaminase+300 μl (40 mM) phosphate buffer pH.7.3.
A low pulse angle experiment was performed (15 degree pulses every 0.5 s for 12 s). Following the end of the experiment the procedure was repeated for tube 2 and tube 3.

[4] = Hydrolysis of hyperpolarized 2-oxoglutaric-(1)-ethyl ester upon dissolution (13C-NMR); assay type: physicochemical; conditions: after 15 s; dissolved in D2O with added NaOH, pH 11
Procedure: 2-oxoglutaric-(1)-ethyl ester (31 mg, 0.18 mmol) was added to an Eppendorf tube and mixed with 0.7 mg (0.45 μmol) of the carboxylic acid form of the finland radical (tris{8-carboxyl-2,2,6,6-tetramethyl-benzo(1,2-d:4,5-dS)bis(1,3)dithiole-4-yl}methyl, carboxylic acid form). […]. The ethyl ester formed a glass upon rapid freezing. […] […]. The sample was hyperpolarized for 90 min.
The sample was dissolved in 6 ml D2O with added NaOH (35 μl of 10 M). […] The ester was hydrolyzed up to at least 95%, after 15 s. The 2-oxoglutaric-(1)-ethyl ester was easily hydrolyzed to 2-oxoglutarate during the time of the experiment.

[5] = system: EL-4 xenograft mouse lymphoma model; assay: In vivo DNP-MR glutamate signal pre versus post etoposide treatment; design: species or system C57BL/6 mouse; conditions: single dose Etoposide 2 mg/mouse i.p.; average over 4 mice, FIG. 8
Procedure: EL-4 xenograft mouse lymphoma model has been selected as test system to verify the ability of detecting tumour response to a DNA targeting therapy. […].
Five million EL-4 cells were suspended in 0.1 mL Roswell Park Memorial Institute (RPMI-1640) medium and subcutaneously injected in the flank of 7 weeks old female C57BL/6 mouse.
DNP experiment has been performed 9-10 days after cells inoculation pre Etoposide treatment and 10-11 days after cells inoculation post single dose Etoposide treatment (a dose of 2 mg/mouse has been i.p. administered by injection of 300 μL of Eposin 20 mg/mL diluted 1:3 in saline solution). DNP sample has been prepared as describes in example 6.

Morris7777 cells [6] = assay: UV assay of 2-oxoglutarate conversion in treated Morris7777 cells; assay type: cell-based, rat; conditions: Etoposide 15 μM 24 hours, Sorafenib 0.5 μM 48 hours, FIG. 10
Procedure: (§1) The UV assay and conditions used in example 4 were applied. Prior to harvesting the cells have been treated with MS-275, resveratrol, etoposide, or Sorafenib, as follows:
(§2) Morris7777 cells: Etoposide 15 μM, for 24 hours; Sorafenib 0.5 μM for 48 hours.
(§3) Uptake and conversion of 2-oxoglutarate were measured as described in example 4.

Morris7777 cells [7] = assay: Trypan blue staining, total cell number and viability of treated Morris7777 cells; assay type: cell-based, rat; conditions: Etoposide 15 μM 24 hours, Sorafenib 0.5 μM 48 hours
Procedure: as §2
(§4) The treatment protocols were evaluated with a standard cellular method, trypan blue staining which provide the total cell numbers and cell viability.

[8] = as above; assay type: cell-based, rat; conditions: rat, Etoposide 15 μM 24 hours, Sorafenib 0.5 μM 48 hours
Procedure: as §2, §4

PC-3 cells [9] = assay: Trypan blue staining, total cell number and viability of treated PC-3 cells; assay type: cell-based, human; conditions: MS-275 0.5 μM 48 hours, Resveratrol 50 μM 48 hours
Procedure: (§5) PC-3 cells: MS-275 0.5 μM, for 48 hours; Resveratrol 50 μM for 48 hours. The treatment protocols were evaluated with a standard cellular method, trypan blue staining which provide the total cell numbers and cell viability.

PC-3 cells [10] = assay: UV assay of 2-oxoglutarate conversion in treated PC-3 cells; assay type: cell-based, human; conditions: MS-275 0.5 μM 48 hours, Resveratrol 50 μM 48 hours, FIG. 9
Procedure: as §1
PC-3 cells: MS-275 0.5 μM, for 48 hours; Resveratrol 50 μM for 48 hours.
as §3

[11] = Trypan blue staining, total cell number and viability of treated PC-3 cells; assay type: cell-based, human; conditions: human, MS-275 0.5 μM 48 hours, Resveratrol 50 μM 48 hours
Procedure: as §5

Molecule: 1-^13C-2-oxoglutaric acid [hyperpolarized 1-^13C-2-oxoglutarate]
- uptake and conversion into hyperpolarized 1-13C-glutamate [1]: taken up by PC-3 cells and converted into hyperpolarized 1-^13C-glutamate
- produced hyperpolarized 1-13C-glutamate signal relative to 1-13C-lactate signal from hyperpolarized 1-13C-pyruvate [2]: more than 2 times

Molecule: O=C(O)CCC(=O)C(=O)O [2-oxoglutarate]
- conversion of 2-oxoglutarate in glutamate [3]: higher in carcinoma cells than in normal cells
- formation of glutamate product by aspartate transaminase (aspartate transaminase; no co-substrate (tube 3)): no product can be formed
- conversion to glutamate by aspartate transaminase, aspartate versus glutamate as co-substrate (aspartate transaminase; tubes 1 and 2, 37° C., FIG. 1): the two amino acids are almost equally effective

Molecule: CCOC(=O)C(=O)CCC(=O)O [2-oxoglutaric-(1)-ethyl ester]
- ester hydrolyzed to 2-oxoglutarate [4]: at least 95%

Molecule: COc1cc([C@@H]2c3cc4c(cc3[C@@H](O[C@@H]3O[C@@H]5CO[C@@H](C)O[C@H]5[C@H](O)[C@H]3O)[C@H]3COC(=O)[C@H]23)OCO4)cc(OC)c1O [Etoposide, etoposide]
- signal of hyperpolarized 1-13C-glutamate post therapy compared to pre therapy [5]: increases two times
- conversion of 2-oxoglutarate to glutamate in comparison to untreated cells (control) (Morris7777 cells [6]): higher
- Cell number (Morris7777 cells [7]): 5.5 million
- viability [8]: < 85%

Molecule: Nc1ccccc1NC(=O)c1ccc(CNC(=O)OCc2cccnc2)cc1 [MS-275]
- Cell number (PC-3 cells [9]): 4.5 million
- conversion of 2-oxoglutarate to glutamate in comparison to untreated cells (control) (PC-3 cells [10]): no change

Molecule: Oc1ccc(C=Cc2cc(O)cc(O)c2)cc1 [Resveratrol]
- Cell number (PC-3 cells [9]): 1.7 million
- viability at 48 h [11]: > 94%
- conversion of 2-oxoglutarate to glutamate in comparison to untreated cells (control) (PC-3 cells [10]): higher

Molecule: CNC(=O)c1cc(Oc2ccc(NC(=O)Nc3ccc(Cl)c(C(F)(F)F)c3)cc2)ccn1 [Sorafenib, sorafenib]
- conversion of 2-oxoglutarate to glutamate in comparison to untreated cells (control) (Morris7777 cells [6]): no change
- Cell number (Morris7777 cells [7]): 8 million
- viability [8]: > 89%
